Source: patent US6852673B2, “Herbicidal pyridine compounds” (BASF Aktiengesellschaft, priority 1998, dated 2005)

How the values were obtained:
Assay type in all cases: in vivo
[1] = test system: Ipomoea hederacea (IPOHE); assay: Pre-emergence herbicidal evaluation, morning glory
Source text: (§1) The pre-emergence herbicidal activity of the compounds of the present invention is exemplified by the following test in which the seeds of a variety of monocotyledonous and dicotyledonous plants are seperately mixed with potting soil and planted on top of approximately one inch of soil in separate pots. After planting, the pots are sprayed with the selected aqueous acetone solution containing test compound in sufficient quantity to provide the equivalent of about 0.0125 to 0.4 kg per hectare of test compound per pot. The treated pots are then placed on greenhouse benches, watered and cared for in accordance with conventional greenhouse procedures. From 2 to 4 weeks after treatment, the tests are terminated and each pot is examined and rated according to the rating system set forth below.

[2] = test system: Matricaria inodora (MATIN); assay: Pre-emergence herbicidal evaluation, mayweed
Source text: as §1

[3] = test system: Alopecurus myosuroides (ALOMY); assay: Pre-emergence herbicidal evaluation, black grass
Source text: as §1

Hordeum vulgare (HORVW) = assay: Pre-emergence herbicidal evaluation, winter barley
Source text: as §1

[4] = test system: Digitaria sanguinalis (DIGSA); assay: Pre-emergence herbicidal evaluation, large crabgrass
Source text: as §1

Galium aparine (GALAP) = assay: Pre-emergence herbicidal evaluation, cleaver
Source text: as §1

[5] = test system: Triticum aestivum (TRZAW); assay: Pre-emergence herbicidal evaluation, winter wheat
Source text: as §1

Lamium purpureum (LAMPU) = assay: Pre-emergence herbicidal evaluation, purple deadnettle
Source text: as §1

[6] = test system: Abutilon theophrasti (ABUTH); assay: Pre-emergence herbicidal evaluation, velvetleaf
Source text: as §1

Setaria viridis (SETVI) = assay: Pre-emergence herbicidal evaluation, green foxtail
Source text: as §1

Stellaria media (STEME) = assay: Pre-emergence herbicidal evaluation, chickweed
Source text: as §1

Solanum nigrum (SOLNI) = assay: Pre-emergence herbicidal evaluation, black nightshade
Source text: as §1

Structure (SMILES) | IPOHE rating ([1]; dose 0.025 kg/ha) | IPOHE rating ([1]; dose 0.1 kg/ha) | IPOHE rating ([1]; dose 0.4 kg/ha) | MATIN rating ([2]; dose 0.025 kg/ha) | MATIN rating ([2]; dose 0.1 kg/ha) | MATIN rating ([2]; dose 0.4 kg/ha) | ALOMY rating ([3]; dose 0.025 kg/ha) | ALOMY rating ([3]; dose 0.1 kg/ha) | ALOMY rating ([3]; dose 0.4 kg/ha) | HORVW rating (Hordeum vulgare (HORVW); dose 0.025 kg/ha) | HORVW rating (Hordeum vulgare (HORVW); dose 0.1 kg/ha) | HORVW rating (Hordeum vulgare (HORVW); dose 0.4 kg/ha) | DIGSA rating ([4]; dose 0.025 kg/ha) | DIGSA rating ([4]; dose 0.1 kg/ha) | DIGSA rating ([4]; dose 0.4 kg/ha) | TRZAW rating ([5]; dose 0.025 kg/ha) | TRZAW rating ([5]; dose 0.1 kg/ha) | TRZAW rating ([5]; dose 0.4 kg/ha) | LAMPU rating (Lamium purpureum (LAMPU); dose 0.025 kg/ha) | LAMPU rating (Lamium purpureum (LAMPU); dose 0.1 kg/ha) | also measured
C=C(Cl)COc1cc(C)cc(Oc2cc(C(F)(F)F)nn2C)n1 [Example 36] | 2 (2 - Slight effect) | 3 (3 - Moderate effect) | 9 (9 - Complete kill) | 7 (7 - Good herbicidal effect) | 9 (9 - Complete kill) | 9 (9 - Complete kill) | 4 (4 - Injury) | 8 (8 - Approaching complete kill) | 9 (9 - Complete kill) | 2 (2 - Slight effect) | 3 (3 - Moderate effect) | 5 (5 - Definite injury) | 8 (8 - Approaching complete kill) | 9 (9 - Complete kill) | 9 (9 - Complete kill) | 0 (0 - No effect) | 2 (2 - Slight effect) | 2 (2 - Slight effect) | 7 (7 - Good herbicidal effect) | 8 (8 - Approaching complete kill) | GALAP rating (Galium aparine (GALAP); dose 0.025 kg/ha): 0 (0 - No effect); GALAP rating (Galium aparine (GALAP); dose 0.1 kg/ha): 3 (3 - Moderate effect); GALAP rating (Galium aparine (GALAP); dose 0.4 kg/ha): 8 (8 - Approaching complete kill); LAMPU rating (Lamium purpureum (LAMPU); dose 0.4 kg/ha): 9 (9 - Complete kill); ABUTH rating ([6]; dose 0.025 kg/ha): 5 (5 - Definite injury); ABUTH rating ([6]; dose 0.1 kg/ha): 5 (5 - Definite injury); ABUTH rating ([6]; dose 0.4 kg/ha): 8 (8 - Approaching complete kill); SETVI rating (Setaria viridis (SETVI); dose 0.025 kg/ha): 9 (9 - Complete kill); SETVI rating (Setaria viridis (SETVI); dose 0.1 kg/ha): 9 (9 - Complete kill); SETVI rating (Setaria viridis (SETVI); dose 0.4 kg/ha): 9 (9 - Complete kill); STEME rating (Stellaria media (STEME); dose 0.025 kg/ha): 5 (5 - Definite injury); STEME rating (Stellaria media (STEME); dose 0.1 kg/ha): 9 (9 - Complete kill); STEME rating (Stellaria media (STEME); dose 0.4 kg/ha): 9 (9 - Complete kill)
CC(Cl)=CCOc1nc(Oc2cc(C(F)(F)F)nn2C)c(F)c(C)c1F [Example 35] |  |  |  |  |  |  |  |  |  |  |  |  |  |  |  |  |  |  |  |  | MATIN rating ([2]; dose 0.04 kg/ha): 9 (9 - Complete kill); MATIN rating ([2]; dose 0.06 kg/ha): 9 (9 - Complete kill); MATIN rating ([2]; dose 0.12 kg/ha): 9 (9 - Complete kill); ALOMY rating ([3]; dose 0.04 kg/ha): 9 (9 - Complete kill); ALOMY rating ([3]; dose 0.06 kg/ha): 9 (9 - Complete kill); ALOMY rating ([3]; dose 0.12 kg/ha): 9 (9 - Complete kill); TRZAW rating ([5]; dose 0.04 kg/ha): 1 (1 - Trace effect); TRZAW rating ([5]; dose 0.06 kg/ha): 3 (3 - Moderate effect); TRZAW rating ([5]; dose 0.12 kg/ha): 3 (3 - Moderate effect); SETVI rating (Setaria viridis (SETVI); dose 0.04 kg/ha): 8 (8 - Approaching complete kill); SETVI rating (Setaria viridis (SETVI); dose 0.06 kg/ha): 9 (9 - Complete kill); SETVI rating (Setaria viridis (SETVI); dose 0.12 kg/ha): 9 (9 - Complete kill); STEME rating (Stellaria media (STEME); dose 0.04 kg/ha): 8 (8 - Approaching complete kill); STEME rating (Stellaria media (STEME); dose 0.06 kg/ha): 9 (9 - Complete kill); STEME rating (Stellaria media (STEME); dose 0.12 kg/ha): 9 (9 - Complete kill)
CC(Cl)=CCOc1cc(C#N)cc(Oc2csc(C(F)(F)F)c2)n1 [Example 28] | 0 (0 - No effect) | 0 (0 - No effect) | 1 (1 - Trace effect) | 9 (9 - Complete kill) | 9 (9 - Complete kill) | 9 (9 - Complete kill) | 3 (3 - Moderate effect) | 8 (8 - Approaching complete kill) | 9 (9 - Complete kill) | 0 (0 - No effect) | 1 (1 - Trace effect) | 3 (3 - Moderate effect) | 3 (3 - Moderate effect) | 9 (9 - Complete kill) | 9 (9 - Complete kill) | 0 (0 - No effect) | 0 (0 - No effect) | 1 (1 - Trace effect) | 5 (5 - Definite injury) | 8 (8 - Approaching complete kill) | SOLNI rating (Solanum nigrum (SOLNI); dose 0.025 kg/ha): 4 (4 - Injury); SOLNI rating (Solanum nigrum (SOLNI); dose 0.1 kg/ha): 8 (8 - Approaching complete kill); SOLNI rating (Solanum nigrum (SOLNI); dose 0.4 kg/ha): 8 (8 - Approaching complete kill); LAMPU rating (Lamium purpureum (LAMPU); dose 0.4 kg/ha): 8 (8 - Approaching complete kill); ABUTH rating ([6]; dose 0.025 kg/ha): 5 (5 - Definite injury); ABUTH rating ([6]; dose 0.1 kg/ha): 7 (7 - Good herbicidal effect); ABUTH rating ([6]; dose 0.4 kg/ha): 8 (8 - Approaching complete kill); STEME rating (Stellaria media (STEME); dose 0.025 kg/ha): 9 (9 - Complete kill); STEME rating (Stellaria media (STEME); dose 0.1 kg/ha): 9 (9 - Complete kill); STEME rating (Stellaria media (STEME); dose 0.4 kg/ha): 9 (9 - Complete kill)
